Reference: article PMC11727040, “Monophosphate Derivatives of Luteolin and Apigenin as Efficient Precursors with Improved Oral Bioavailability in Rats” (Antioxidants, 2024)
≈ marks a conversion by molar mass, not a printed value. Like-named read-outs stand apart in the source and are kept apart here.

What was measured:
[1] = Stability in simulated gastric fluid (SGF) and simulated intestinal fluid (SIF); format: in vitro ADME; conditions: SGF with pepsin and SIF with pancreatin pH 6.8, 125 mg/L, 37 °C
Procedure: For the SGF solution, 5 g of pepsin was dissolved in 1 L of deionized water with the addition of hydrochloric acid to achieve a pH of 1.8. The SIF solution consisted of 6.8 g of monopotassium phosphate and 10 g of pancreatin dissolved in 1 L of deionized water, maintaining a pH of 6.8.

[2] = biological target: T1, Caco-2 cell apical membrane-associated alkaline phosphatase (ALP) (Homo sapiens, UniProt P09923); test: Dephosphorylation by Caco-2 cell apical membrane-associated ALP; format: cell-based; conditions: Caco-2 cells, HBSS, 37 °C, 120 min incubation, initial concentration 20 μM, read-out: elimination half-life (T1/2) of dephosphorylation
T1 construct: The Caco-2 cells (human colon adenocarcinoma, clone of Caco-2) were obtained from the Bioresource Collection and Research Center; endogenous in cells; host or cells: Caco-2 (human colon adenocarcinoma) cells, intact, 5 days in culture
T1 sequence (P09923 20-503 limits assumed): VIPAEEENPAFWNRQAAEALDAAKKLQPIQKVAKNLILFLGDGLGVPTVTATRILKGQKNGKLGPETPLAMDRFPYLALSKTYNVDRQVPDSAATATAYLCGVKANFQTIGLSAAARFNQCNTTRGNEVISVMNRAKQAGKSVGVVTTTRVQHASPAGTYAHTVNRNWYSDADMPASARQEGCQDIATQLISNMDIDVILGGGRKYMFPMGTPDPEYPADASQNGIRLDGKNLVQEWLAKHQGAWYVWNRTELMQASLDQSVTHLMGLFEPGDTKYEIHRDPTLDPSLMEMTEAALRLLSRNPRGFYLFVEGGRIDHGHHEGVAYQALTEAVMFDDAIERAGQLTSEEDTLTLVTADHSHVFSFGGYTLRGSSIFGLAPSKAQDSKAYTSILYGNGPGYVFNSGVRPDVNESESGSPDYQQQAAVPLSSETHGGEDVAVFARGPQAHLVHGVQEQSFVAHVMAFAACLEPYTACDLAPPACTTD
Procedure: The Caco-2 cells (human colon adenocarcinoma, clone of Caco-2) were obtained from the Bioresource Collection and Research Center, Hsinchu, Taiwan. Caco-2 cells were cultured according to previously established protocols. For the dephosphorylation study, the cells were seeded onto 6-well plates at a density of 3.0 × 10^5 cells per well in 2 mL of fresh medium. The medium was refreshed every 48 h. […] The plates were then incubated at 37 °C, and aliquots of 200 μL were collected at 15, 30, 60, and 120 min. […] The supernatants were analyzed by HPLC to quantify the relative content of LutPs to Lut and ApnPs to Apn. To assess the activity of human intestinal alkaline phosphatase (ALP), a positive control of fosphenytoin, a phenytoin phosphate prodrug, was used.
The HPLC system employed in this study consisted of the Waters Alliance 2695 separation module (Waters, Milford, MA, USA), a YMC-Pack ODS-AM C18 column (4.6 × 250 mm, 5 µm) with a guard cartridge (Hichrom 5C18, Berkshire, UK) and a Waters 2487 Dual-Absorbance Detector (Waters, Milford, MA, USA). Chromatographic separation was conducted at a temperature of 30 °C, utilizing a linear gradient mobile phase consisting of 0.1% phosphoric acid in H2O (solvent A) and 0.1% phosphoric acid in acetonitrile (solvent B). The elution gradient programs for quantifying each compound are detailed in Supplementary Materials Table S1. Luteolin and its derivatives were detected at a wavelength of 354 nm, while apigenin and its derivatives were detected at a wavelength of 270 nm, and fosphenytoin at 210 nm. The quantitation was conducted using the external standard method with calibration curves, and the quality was ensured by maintaining an R^2 value exceeding 0.99.

[3] = Oral pharmacokinetics of Apn, Apn7G and ApnPs in SD rats; format: in vivo, Sprague Dawley (SD) rats
Procedure: (§1) (Taipei, Taiwan). and housed individually. The facilities were maintained at 25 °C, at constant humidity, and a 12 h light/dark cycle with ad libitum access to food and water and acclimated for at least 7 days prior to any experiments. Rats were fasted for 24 h before the experiments, with water freely available. For the pharmacokinetic study, rats were randomly assigned to three groups for the tests (n = 4 for Lut-relevant groups; n = 4-5 for Apn-relevant groups). […] The Apn-relevant groups received Apn aqueous suspension, Apn7G aqueous suspension, or ApnPs solution. Dosages were designed as 174.7 μmol/kg for Lut and 185.02 μmol/kg for Apn, based on the human dietary supplement dosage of 500 mg/day, translated by the body surface area index as per FDA guidelines. […] Lut and Apn were quantified in biological samples after enzymatic hydrolysis of their conjugated forms. The plasma was acidified to pH 5 by adding 10 μL of 0.5 M acetate buffer. […] The mixture was fractionated using a Sep-Pak C18 cartridge (Waters, Milford, MA, USA), eluted in order with 0.01 M oxalic acid, water/methanol/0.5 M oxalic acid (88:10:2), distilled water, and 100% methanol. The methanol fraction was adjusted to a constant volume of 500 μL and filtered with a 0.22 μm membrane to remove insoluble matter, and, subsequently, the filtrate underwent UPLC-MS/MS. The levels of Lut and Apn in the plasma were quantified using a Waters ACQUITY UPLC I-Class system (Waters, Milford, MA, USA) equipped with an XEVO TQS-microTriple-Quadrupole Tandem Mass Spectrometer (Waters, Milford, MA, USA). Chromatographic separation was achieved using a Thermo Hypersil GOLD aQ C18 (50 × 2.1 mm, 1.9 μm) column (Thermo Fisher Scientific, Waltham, MA, USA). The injection volume was 3 μL. […] The temperature of the column oven was set at 40 °C. The MRM mode in negative mode was used, and the MS parameter was set as follows. The most intense precursor-to-product transitions were selected: m/z 285→133 for luteolin, and m/z 269→107 and m/z 269→41 for apigenin and genistein, respectively. The source voltage was 1500 V. The desolvation temperature was 400 °C, and the desolvation gas flow was 800 L/h. The source temperature was 150 °C. The contents of Lut and Apn were calculated by the calibration curve and the response obtained by the peak area of them against the internal standard. Details on the multiple reaction monitoring (MRM) conditions, elution gradient programs, and UPLC method validation are provided in the Supplementary Materials Tables S2 and S3. The pharmacokinetic parameters, including maximum concentration (Cmax), time to reach maximum concentration (Tmax), and area under curve (AUC), were determined using the pharmacokinetic software WinNonlin Standard Edition v1.1 (Pharsight Corp., Mountainview, CA, USA).

[4] = Dissolution study, USP apparatus II (paddle method); format: physicochemical; conditions: for dissolution rate in bile extract solution: bile extract solution as dissolution medium; for dissolution rate after 60 min: standard dissolution medium, 0.05 M phosphate buffer pH 6.8, 37 °C, 20 μM
Procedure: To investigate the influence of bile extract (comprising bile salts and phospholipids) on the dissolution of these compounds, bile extract solutions were prepared according to the protocol described by Makioka et al. This involved dissolving 12 g of porcine bile extract and 8.4 g of sodium bicarbonate in 1 L of deionized water, which served as the dissolution medium. After the sample was placed in the dissolution medium, 1 mL aliquots of the medium were collected at 5, 10, 20, 30, 45, and 60 min of incubation, and filtered through a 0.2 μm polyethersulfone filter (Pall Corp., New York, NY, USA). Subsequently, 500 μL of each sample was acidified with 5 μL of 2 M acetic acid and stored at −20 °C until HPLC analysis.

[5] = cited from earlier work
[6] = parameters: method as in PMID 32785007; conditions: rats, oral 10 mg/kg; read-out: maximum plasma concentration (Cmax); cited from earlier work
[7] = Aqueous solubility, classical shake-flask method; conditions: ultrapure water
From the text: Then, the resulting supernatant (the saturated solution) was aliquoted and diluted carefully and properly to perform the quantitative analysis using HPLC.

[8] = Oral pharmacokinetics of Lut, Lut7G and LutPs in SD rats; format: in vivo, Sprague Dawley (SD) rats
Procedure: as §1

[9] = parameters: method as in doi:10.1016/j.jff.2017.05.056; conditions: rats, 20 μmol/kg (5.725 mg/kg) via gavage; cited from earlier work
[10] = rat, in vivo, po, 185.02 umol/kg
[11] = rat, in vivo, po, 174.7 umol/kg

O=c1cc(-c2ccc(OP(=O)(O)O)cc2)oc2cc(O)cc(O)c12 [Apn4′P, apigenin 4′-O-phosphate]
retained relative content after 240 min of incubation [1]: over 80% | half-life at 20 μM [2]: 1.07 h

O=c1cc(-c2ccc(O)cc2)oc2cc(O[C@@H]3O[C@H](CO)[C@@H](O)[C@H](O)[C@H]3O)cc(O)c12 [Apn7G, apigenin 7-O-glucoside]
Apn conjugates AUC0–t [3, 10]: 13,243.27 nM·h | Apn conjugates Tmax [3, 10]: 2.00 h | Lut (metabolite) conjugates AUC0–t [3, 10]: 8.78863 µM·h | Lut (metabolite) conjugates Tmax [3, 10]: 2.00 h | aglyconic Apn AUC0–t [3, 10]: 0.37171 µM·h | aglyconic Apn Tmax [3, 10]: 0.5 h | aglyconic Lut (metabolite) AUC0–t [3, 10]: 0.01854 µM·h | aglyconic Lut (metabolite) Tmax [3, 10]: 1.00 h | overall Apn AUC0–t [3, 10]: 13,614.98 nM·h | overall Apn Tmax [3, 10]: 2.00 h | overall Lut (metabolite) AUC0–t [3, 10]: 8.87017 µM·h | overall Lut (metabolite) Tmax [3, 10]: 2.00 h

O=c1cc(-c2ccc(O)cc2)oc2cc(OP(=O)(O)O)cc(O)c12 [Apn7P, apigenin 7-O-phosphate]
retained relative content after 240 min of incubation [1]: 76% | half-life at 20 μM [2]: 0.73 h

O=c1cc(-c2ccc(O)cc2)oc2cc(O)cc(O)c12 [Apn, 4′,5,7-trihydroxyflavone]
dissolution rate in bile extract solution [4]: 12.5% | dissolution rate after 60 min [4]: 0.24% | AUC(0-t) ([3]; male, Sprague Dawley, 185.02 umol/kg, rat plasma, oral 185.02 µmol/kg, 0 to 10 h, read-out: aglyconic Apn AUC0–t): 0.113 µM·h | Cmax ([3]; male, Sprague Dawley, 185.02 umol/kg, rat plasma, oral 185.02 µmol/kg, mean ± SE, read-out: aglyconic Apn Cmax): 14 ± 1.27 nM | aglyconic Apn Tmax ([3]; rat plasma, oral 185.02 µmol/kg): 0.5 h | absolute oral bioavailability [5]: 0.71% | Cmax [6]: 80 nM | solubility [7]: 1.2 µg/mL (≈ 4.44 µM)

O=c1cc(-c2ccc(O)c(OP(=O)(O)O)c2)oc2cc(O)cc(O)c12 [Lut3′P, luteolin 3′-O-phosphate]
retained relative content after 240 min of incubation [1]: over 80% | half-life at 20 μM [2]: 0.693 h

O=c1cc(-c2ccc(OP(=O)(O)O)c(O)c2)oc2cc(O)cc(O)c12 [Lut4′P, luteolin 4′-O-phosphate]
retained relative content after 240 min of incubation [1]: over 80% | half-life at 20 μM [2]: 0.463 h

O=c1cc(-c2ccc(O)c(O)c2)oc2cc(O[C@@H]3O[C@H](CO)[C@@H](O)[C@H](O)[C@H]3O)cc(O)c12 [Lut7G, luteolin 7-O-glucoside]
AUC0–∞ of overall Lut ([8]; rat, in vivo, po): 35.419 µM·h | aglyconic luteolin AUC0–t [8, 11]: 2.00935 µM·h | aglyconic luteolin Tmax [8, 11]: 1.00 h | luteolin conjugates AUC0–t [8, 11]: 31,336.03 nM·h | luteolin conjugates Tmax [8, 11]: 4.00 h | overall luteolin AUC0–t [8, 11]: 33,111.44 nM·h | overall luteolin Tmax [8, 11]: 2.00 h

O=c1cc(-c2ccc(O)c(O)c2)oc2cc(OP(=O)(O)O)cc(O)c12 [Lut7P, luteolin 7-O-phosphate]
retained relative content after 240 min of incubation [1]: 73% | half-life at 20 μM [2]: 0.287 h

O=c1cc(-c2ccc(O)c(O)c2)oc2cc(O)cc(O)c12 [Lut, 3′,4′,5,7-tetrahydroxyflavone]
dissolution rate in bile extract solution [4]: 10.2% | dissolution rate after 60 min [4]: 3.5% | Cmax ([8]; male, Sprague Dawley, 174.7 umol/kg, rat plasma, oral 174.7 µmol/kg, mean ± SE, read-out: aglyconic luteolin Cmax): 140 ± 194 nM | AUC(0-t) ([8]; male, Sprague Dawley, 174.7 umol/kg, rat plasma, oral 174.7 µmol/kg, zero to 8 h, read-out: aglyconic luteolin AUC0–t): 0.635 µM·h | Tmax ([8]; male, Sprague Dawley, 174.7 umol/kg, rat plasma, oral 174.7 µmol/kg, read-out: aglyconic luteolin Tmax): 1 h | absolute oral bioavailability [5]: 4.10% | brain tissue concentration [9]: less than 0.1 nmol/g | solubility [7]: 13 µg/mL (≈ 45.4 µM)

O=C1NC(c2ccccc2)(c2ccccc2)C(=O)N1COP(=O)(O)O [fosphenytoin]
half-life at 20 μM [2]: 1.67 h
